Measured values reported in US8450366B2, “Isobenzofuran analogs of sclerophytin A” (Board of Trustees of the University of Arkansas, priority 2009, dated 2013).
≈ marks a conversion by molar mass, not a printed value. Where “and” joins values, the source holds several entries; their conditions need not be identical. Identical values can stand only once. Like-named read-outs stand apart in the source and are kept apart here.

Assays:
[1] = tested on: KB-3 human carcinoma cell line; experiment: MTT colorimetric assay of KB-3 cell viability; assay type: cell-based; conditions: for IC50: KB-3 cells, 96 h treatment, triplicate, read-out: IC50, inhibition of KB-3 cell survival assessed by MTT viability assay
Protocol: The human KB-3 carcinoma cell line was used to perform the MTT colorimetric assay of cell viability.(22-24) Cells were treated with increasing concentrations of compounds to assess their growth inhibitory properties. IC50 values (concentration of the drug required to reduce cell viability by 50%) ranged from 1 to >100 μM (Table 1).
Inhibition of cell proliferation was assessed by the MTT assay. This assay is based on the ability of a mitochondrial dehydrogenase enzyme from viable cells to cleave the tetrazolium rings of the pale yellow 3-(4,5-dimethylthiazol-2-yl)-2,5-diphenyltetrazolium bromide (MTT) and form a dark blue formazan crystal product which is largely impermeable to cell membranes, thus resulting in its accumulation within healthy cells.(22) Solubilization of the cells by the addition of solvent results in the liberation of the crystals which are solubilized. The level of the formazan product created is directly proportional to the number of living cells.(23,24)
All stock solutions of compounds were made at 10 mM in dimethyl sulfoxide (DMSO). DMSO and MTT were from Sigma Chemical Co. (St. Louis, Mo.). Cell culture reagents were obtained from Life Technologies (Carlsbad, Calif.). The KB-3 human carcinoma cell line was maintained in monolayer culture at 37° C. and 5% CO2 in Dulbecco's Modified Eagle's Medium, supplemented with 10% fetal bovine serum, 2 mM L-glutamine, 50 units/mL penicillin, and 50 μg/mL streptomycin.
KB-3 cells (2000/well) were plated in 96-well dishes, and after 24 h were treated with 0.1 nM-100 μM of the compound in question. […] After 96 h, cells were incubated with 50 μg MTT/well/0.2 mL for 4 h at 37° C., the media was removed, and the formazan crystals were dissolved in 0.15 mL of DMSO. Absorbance at 570 nm was measured with an ELx800™ Microplate Reader (Bio Tek Instruments, Inc., Winooski, Vt.). All treatments were performed in triplicate. Results are shown in FIGS. 1A-D as a percentage of control samples (mean±SD). IC50 is the concentration that reduced survival to 50% of the control (no drug).

[2] = tested on: 60-cell line screening; experiment: NCI Developmental Therapeutics 60-cell line screening, single dose; assay type: cell-based; conditions: NCI 60-cell line screening
[3] = tested on: PC-3 prostate cancer cell line; experiment: NCI 60-cell line single dose assay, PC-3; assay type: cell-based
[4] = tested on: RPMI-8226 leukemia cell line; experiment: NCI 60-cell line single dose assay, RPMI-8226; assay type: cell-based
[5] = tested on: RPMI-8226 leukemia cell line; experiment: NCI 5-dose testing, RPMI-8226; assay type: cell-based; conditions: 5-dose testing, read-out: LC50 (the source's name)
[6] = tested on: entire leukemia panel; experiment: NCI 60-cell line single dose assay, leukemia panel; assay type: cell-based
[7] = tested on: NCI-H522 non-small cell lung cancer cell line; experiment: NCI 60-cell line single dose assay, NCI-H522; assay type: cell-based
[8] = tested on: HOP-92 non-small cell lung cancer cell line; experiment: NCI 5-dose testing, HOP-92; assay type: cell-based; conditions: 5-dose testing, read-out: LC50 (the source's name)
[9] = reported in the literature; cited from earlier work
[10] = tested on: L1210 cell line; conditions: reported, cited from earlier work

Row | Molecule | IC50 [1] | further results
1 | C=C(C)[C@H]1CC=C(C)[C@@]2(O)[C@@H]1[C@H](c1ccccc1Br)O[C@@H]2C(=O)OC [Compound 5a.i] | 5 µM | –
2 | C=C(C)[C@H]1CC=C(C)[C@@]2(O)[C@@H]1[C@H](c1ccccc1Br)O[C@@H]2C(=O)OCC1CC1 [Compound 5a.ii] | 50 µM | –
3 | C=C(C)[C@H]1CC=C(C)[C@@]2(O)[C@@H]1[C@H](c1ccccc1Br)O[C@@H]2C(=O)OCC1CCCC1 [Compound 5a.iii] | > 100 µM | –
4 | C=C(C)[C@H]1CC=C(C)[C@@]2(O)[C@@H]1[C@H](c1ccccc1Br)O[C@@H]2C(=O)OCC [Compound 5a] | ~20 µM and 20 µM | –
5 | C=C(C)[C@H]1CC=C(C)[C@@]2(O)[C@@H]1[C@H](c1cccc(Br)c1)O[C@@H]2C(=O)OCC [Compound 5b] | 3 µM | –
6 | C=C(C)[C@H]1CC=C(C)[C@@]2(O)[C@@H]1[C@H](c1cccc(Cl)c1Cl)O[C@@H]2C(=O)OCC [Compound 5c] | 5 µM | –
7 | C=C(C)[C@H]1CC=C(C)[C@@]2(O)[C@@H]1[C@H](c1ccc(Cl)cc1Cl)O[C@@H]2C(=O)OCC [Compound 5d] | 3 µM | activity in single dose assays [2]: no significant activity
8 | C=C(C)[C@H]1CC=C(C)[C@@]2(O)[C@@H]1[C@H](c1cccc3ccccc13)O[C@@H]2C(=O)OC [Compound 5e] | 10 µM | fold more active than the corresponding diene 10e ([1]; KB-3 IC50, entry 8 vs. entry 18): at least 10 fold
9 | C=C(C)[C@H]1CC=C(C)[C@@]2(O)[C@@H]1[C@H](c1ccccn1)O[C@@H]2C(=O)OC [Compound 5f] | – | IC50 ([1]; Homo sapiens, KB3): 100 µM
10 | C=C(C)[C@H]1CC=C(C)[C@@]2(O)[C@@H]1[C@H](c1cccc[n+]1C)O[C@@H]2C(=O)OC [Compound 5i] | – | IC50 ([1]; Homo sapiens, KB3): > 100 µM
11 | C=C(C)[C@H]1CC(=O)C(C)=C2[C@@H](C(=O)OCC)O[C@@H](c3ccccc3Br)[C@@H]21 [Compound 6a] | ~70 µM and 70 µM | –
12 | C=C(C)[C@H]1CC(=O)C(C)=C2[C@@H](C(=O)OCC)O[C@@H](c3cccc(Br)c3)[C@@H]21 [Compound 6b] | 30 µM | –
13 | C=C(C)[C@H]1CC(=O)C(C)=C2[C@@H](C(=O)OCC)O[C@@H](c3cccc(Cl)c3Cl)[C@@H]21 [Compound 6c] | 5 µM | –
14 | C=C(C)[C@H]1CC(=O)C(C)=C2[C@@H](C(=O)OCC)O[C@@H](c3ccc(Cl)cc3Cl)[C@@H]21 [Compound 6d] | 3 µM | differential activity, single dose [3]: significant differential activity; differential activity, single dose [4]: significant differential activity
15 | C=C(C)[C@H]1CC=C(C)[C@@]2(O)[C@@H]1[C@H](c1ccccc1Br)O[C@@H]2C(=O)O [Compound 9] | > 100 µM | –
16 | C=C(C)C1CC=C(C)C2=COC(c3ccccc3Br)C21 (centres unmarked) [Compound 10a] | 4 µM | –
17 | C=C(C)C1CC=C(C)C2=COC(c3cccc4ccccc34)C21 (centres unmarked) [Compound 10e] | > 100 µM | –
18 | C=C(C)C1CC=C(C)C2=COC(c3ccco3)C21 (centres unmarked) [Compound 10g] | 2 µM | –
19 | C=C(C)C1CC=C(C)C2=COC(c3ccccc3F)C21 (centres unmarked) [Compound 10h] | 1 µM | CC50 [5]: 9.36 µM; differential activity, single dose [6]: significant differential activity; differential activity, single dose [7]: significant differential activity; CC50 [8]: 26.8 µM
20 | CO[C@]12C=C[C@](C)(O1)[C@@H](OC(=O)/C=C/c1cn(C)cn1)C[C@H]1C(C)=CC[C@H](C(C)C)[C@H]1/C=C\2CO[C@@H]1OC[C@@H](O)[C@@H](O)[C@@H]1OC(C)=O [Eleutherobin] | – | anti-mitotic activity [9]: taxol-like anti-mitotic activity
21 | C=C1CC[C@H](C(C)C)[C@@H]2[C@H]1[C@H]1C[C@](C)(O)[C@@H](O)CC[C@@](C)(O)[C@@H]2O1 [Sclerophytin A] | – | IC50 ([10]; value in brackets, read-out: IC50, growth inhibitory activity against L1210): 0.003 µM; IC50, growth inhibitory activity against L1210 [10]: 1.0 ng/mL (≈ 2.95 nM)
22 | COC(=O)/C1=C/[C@@H]2[C@@H](C(C)C)CC=C(C)[C@@H]2C[C@H](OC(=O)/C=C/c2cn(C)cn2)[C@]2(C)C=C[C@@]1(O)O2 [sarcodictyins A, sarcodictyin A] | – | anti-mitotic activity [9]: taxol-like anti-mitotic activity
23 | sarcodictyin B [sarcodictyins B] | – | anti-mitotic activity [9]: taxol-like anti-mitotic activity
